The structures appear in SMILES notation.

Consider two molecules from patent publication US7358359B2, “Antibacterial agents” (University of Washington, priority 2003, dated 2008).

Data set [1] deals with E. coli 25922. The experiment in a line: MIC broth microdilution, standard panel: E. coli 25922. It counts as cell-based. The conditions noted are these: Escherichia coli, standard panel of organisms. Here is the method: (§1) Bacterial isolates were cultivated from −70° C. frozen stocks by two consecutive overnight passages at 35° C. in ambient air on 5% blood agar (Remel, Lenexa, Kans.). Clinical isolates tested were from a collection composed of isolates collected during clinical trials and recent clinical isolates obtained from various geographically diverse hospitals in the US. Quality control and primary panel strains were from the American Type Culture Collection (ATCC; Rockville, Md.), with the exception of P. aeruginosa PAO200, a strain with a deletion of the mexABoprM genes that was received from Dr. H. Schweizer. […] Strain Z61 (ATCC 35151) is also hypersusceptible to antibacterials. It is thought that the hypersusceptibility of this strain is the result of increased permeability of its outer membrane (Angus B L et al, Antimicrobial Agents and Chemotherapy 1982 21,299-309: Outer membrane permeability in Pseudomonas aeruginosa: Comparison of a wild-type with an antibacterial-supersusceptible mutant).
(§2) Minimum Inhibitory Concentrations (MICs) were determined by the broth microdilution method in accordance with the National Committee for Clinical Laboratory Standards (NCCLS) guidelines. In brief, organism suspensions were are adjusted to a 0.5 McFarland standard to yield a final inoculum between 3×10^5 and 7×10^5 colony-forming units (CFU)/mL. Drug dilutions and inocula were made in sterile, cation adjusted Mueller-Hinton Broth (Remel). An inoculum volume of 100 μl was added to wells containing 100 μl of broth with 2-fold serial dilutions of drug. All inoculated microdilution trays were incubated in ambient air at 35° C. for 18-24 hours. Following incubation, the lowest concentration of the drug that prevented visible growth was recorded as the MIC. Performance of the assay was monitored by the use of laboratory quality-control strains against tobramycin, that has a defined MIC spectrum, in accordance with NCCLS guidelines.

The test system of data set [2] is P. aeruginosa 27853. The experiment in a line: MIC broth microdilution, standard panel: P. aeruginosa 27853. The data set is classed as cell-based. The conditions noted are these: Pseudomonas aeruginosa, standard panel of organisms. The protocol:
as §1, §2

Data set [3] concerns P. aeruginosa PAO200 mexAB. Put plainly: MIC broth microdilution, standard panel: P. aeruginosa PAO200 mexAB. The data set is classed as cell-based. To be noted: Pseudomonas aeruginosa, PAO200MEXAB, read-out: MIC P. aeruginosa PAO200 mexAB. The protocol:
as §1, §2

For data set [4], the target named is T1, P. aeruginosa LpxC (Pseudomonas aeruginosa, UniProt P47205).
T1 sequence (P47205 1-303): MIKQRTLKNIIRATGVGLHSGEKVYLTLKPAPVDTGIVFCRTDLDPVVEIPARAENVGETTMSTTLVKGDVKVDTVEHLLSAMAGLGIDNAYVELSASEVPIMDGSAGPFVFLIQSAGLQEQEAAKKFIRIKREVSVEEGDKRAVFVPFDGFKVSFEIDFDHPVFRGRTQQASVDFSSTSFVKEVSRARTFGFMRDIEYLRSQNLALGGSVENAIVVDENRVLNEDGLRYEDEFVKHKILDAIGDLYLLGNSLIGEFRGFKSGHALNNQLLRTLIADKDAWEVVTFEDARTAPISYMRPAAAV
Put plainly: P. aeruginosa LpxC Inhibition Assay. It counts as biochemical. To be noted: 2 nM P. aeruginosa LpxC, 90 min, room temperature; read-out: IC50 (nM), Enzyme inhibitory activity. The protocol: The assay followed the general method of Hyland et al (Journal of Bacteriology 1997 179, 2029-2037: Cloning, expression and purification of UDP-3-O-acyl-GlcNAc deacetylase from Pseudomonas aeruginosa: a metalloamidase of the lipid A biosynthesis pathway) and the radiolabeling procedure is according to Kline et al. supra. Briefly, samples were incubated with 2 nM P. aeruginosa LpxC and 150 nM [3H-Ac]-UDP-3-OR-3-hydroxydecanoyl)-GlcNAc in a total volume of 50 uL for 90 min at room temperature. Reactions were carried out in 96-well polypropylene plates in 50 mM sodium phosphate buffer, pH 7.5, containing 1 mg/mL BSA. Reactions were stopped by the addition of 180 uL of a 3% suspension of activated charcoal powder in 100 mM sodium acetate, pH 7.5. Supernatants were clarified by centrifugation. A portion of the clarified supernatant, containing the enzymatically released [3H]-acetate, was transferred to opaque white 96-well plates containing scintillation fluid. The radioactivity was measured in a Perkin-Elmer/Wallac Trilux Microbeta counter.

Data set [5] deals with S. aureus 29213. The experiment in a line: MIC broth microdilution, standard panel: S. aureus 29213. To be noted: Staphylococcus aureus, standard panel of organisms. It counts as cell-based. Here is the method: as §1, §2

On to `NC[C@H](NC(=O)c1ccc(C#Cc2ccc(NC(=O)CNc3ccccc3)cc2)cc1)C(=O)NO` [Example 572, N-{(1S)-1-(aminomethyl)-2-(hydroxyamino)-2-oxoethyl]-4-[(4-{[(phenylamino)acetyl]amino}phenyl)ethynyl]benzamide], for which the minimal inhibitory concentration (MIC) was under 6.25 µg/mL in data set [1], under 6.25 µg/mL in data set [2], under 6.25 µg/mL in data set [3] and over 50 µg/mL in data set [5]. The IC50 in data set [4] is under 100 nM.

`O=C(NO)[C@H]1[C@H](O)CCN1C(=O)c1ccc(OC(F)(F)F)cc1` [Example 3, (2R,3R)-3-hydroxy-1-{[4-(trifluoromethoxy)phenyl]carbonyl}pyrrolidine-2-carbohydroxamic acid] gave a melting point of 64 to 65 °C.
